25 molecules from patent US12172975B2, “1H-indazole carboxamides as receptor-interacting protein kinase 1 inhibitors (RIPK1)” (BRISTOL-MYERS SQUIBB COMPANY, priority 2018, dated 2024) can be followed below.

The structures appear in SMILES notation.

The first test has as its system MLKL phosphorylation in HT29-L23 human colorectal adenocarcinoma cells. In words: MLKL Phosphorylation High-Content Assay. It counts as cell-based. The note with it: Homo sapiens, 6 h, necroptosis induced with TNFα, SMAC mimetic and Z-VAD, read-out: pMLKL (IC50). How it is done: MLKL Phosphorylation High-Content Assay
HT29-L23 human colorectal adenocarcinoma cells were maintained in RPMI 1640 medium containing 10% heat-inactivated FBS, 1% Penicillin-Streptomycin and 10 mM HEPES. Cells were seeded at 2,000 cells/well in 384 well tissue culture-treated microplates (Greiner #781090-3B) and incubated at 37° C. (5% CO2/95% O2) for 2 d. […] (5% CO2/95% O2). Necroptopsis was induced using a mixture of human TNFα (35 ng/mL) (Peprotech #300-01A), SMAC mimetic (from US 2015/0322111 A1) (700 nM) and Z-VAD ([…]) (BD pharmingen #51-6936). Following 6 h incubation at 37° C. (5% CO2/95% O2), the cells were fixed with 4% formaldehyde (ACROS 11969-0010) for 15 min at rt, then permeabilized with phosphate buffered saline (PBS) containing 0.2% Triton-X-100 for 10 min. MLKL phosphorylation was detected using anti-MLKL (phospho S358) antibody (Abeam #ab 187091) (1:1000 dilution in Blocking Buffer [PBS supplemented with 0.1% BSA]) with ON incubation at 4° C. After washing three times in PBS, goat anti-rabbit Alexa-488 (1:1000 dilution) (Life Technologies, A11008) and Hoechst 33342 (Life Technologies, H3570) (1:2000 dilution) in Blocking Buffer were added for 1 h at rt.
Following another three cycles of washes in PBS, the microplates were sealed, and cellular images were acquired in the Cellomics ArrayScan VTI high-content imager equipped with an X1 camera. Fluorescent images were taken using a 10× objective and the 386-23 BGRFRN_BGRFRN and 485-20 BGRFRN_BGRFRN filter sets, for nuclei and MLKL phosphorylation, respectively. The image sets were analyzed using the Compartmental Analysis Bioapplication software (Cellomics). The level of MLKL phosphorylation was quantified as MEAN_CircRingAvglntenRatio. The maximal inhibitory response was defined by the activity induced by Neels (CAS #: 852391-15-2, 6.25 μM). […] The data were fitted using the 4-parameter logistic equation to calculate the IC50 and Ymax values.
What is called IC50 is the midpoint of a concentration-inhibition curve. With `CNC(=O)c1n[nH]c2cc(-c3cnc(OC)c(C(=O)NCc4ccccc4OC)c3)ccc12` [Example 58, 6-(6-methoxy-5-{[(2-methoxy-phenyl)methyl]carbamoyl}-pyridin-3-yl)-N-methyl-1H-indazole-3-carboxamide], the IC50 stood at 5.6 nM.

As to `CNC(=O)c1n[nH]c2cc(-c3cnc(OC)c(C(=O)NCCCOC(C)(C)C)c3)ccc12` [Example 60, 6-(5-{[3-(tert-butoxy)propyl]-carbamoyl}-6-methoxypyridin-3-yl)-N-methyl-1H-indazole-3-carboxamide], the IC50 came to 16 nM.

With `CNC(=O)c1n[nH]c2cc(-c3cnc(OC)c(C(=O)NCCCOC4CCCCO4)c3)ccc12` (stereo not shown) [Example 61, 6-(6-methoxy-5-{[3-(oxan-2-yloxy)propyl]carbamoyl}-pyridin-3-yl)-N-methyl-1H-indazole-3-carboxamide], the IC50 was found to be 28 nM.

For `CNC(=O)c1n[nH]c2cc(-c3cnc(OC)c(C(=O)N[C@H]4CC[C@@H](c5ccccc5)C4)c3)ccc12` [Example 67, 6-(6-methoxy-5-{[(1S,3R)-3-phenylcyclopentyl]carbamoyl}-pyridin-3-yl)-N-methyl-1H-indazole-3-carboxamide], the IC50 stood at 39 nM.

On to `CNC(=O)c1[nH]nc2cc(-c3cnc(OC)c(C(=O)NC[C@@H]4C[C@H]4c4ccc(F)cc4)c3)ccc12` [Example 70, 6-[5-({[(1R,2R)-2-(4-fluoro-phenyl)cyclopropyl]methyl}-carbamoyl)-6-methoxypyridin-3-yl]-N-methyl-2H-indazole-3-carboxamide], for which the IC50 was determined as 36 nM.

As for `CCc1ccccc1CNC(=O)c1cc(-c2ccc3c(C(=O)NC)n[nH]c3c2)cnc1OC` [Example 82, 6-(5-{[(2-ethylphenyl)methyl]-carbamoyl}-6-methoxy-pyridin-3-yl)-N-methyl-1H-indazole-3-carboxamide], the IC50 was found to be 41 nM.

Consider `CNC(=O)c1n[nH]c2cc(-c3cnc(OC)c(C(=O)NCCCC(=O)OC(C)(C)C)c3)ccc12` [Example 135, tert-butyl 4-({2-methoxy-5-[3-(methylcarbamoyl)-1H-indazol-6-yl]pyridin-3-yl}formamido)-butanoate], for which the IC50 turned out to be 200 nM.

Consider `CNC(=O)c1n[nH]c2cc(-c3cnc(OC)c(C(=O)N[C@H]4CCN(C(=O)OC(C)(C)C)C4)c3)ccc12` [Example 136, tert-butyl (3S)-3-{2-methoxy-5-[3-(methylcarbamoyl)-1H-indazol-6-yl]pyridine-3-amido}-pyrrolidine-1-carboxylate], for which the IC50 amounted to 480 nM.

With `CNC(=O)c1n[nH]c2cc(-c3cnc(OC)c(C(=O)N[C@@H](C)CC(=O)OC(C)(C)C)c3)ccc12` [Example 139, tert-butyl (3S)-3-({2-methoxy-5-[3-(methylcarbamoyl)-1H-indazol-6-yl]pyridin-3-yl}-formamido)butanoate], the IC50 is 28 nM.

On to `CNC(=O)c1n[nH]c2cc(-c3cnc(OC)c(C(=O)N[C@H](C)CC(=O)OC(C)(C)C)c3)ccc12` [Example 141, tert-butyl (3R)-3-({2-methoxy-5-[3-(methylcarbamoyl)-1H-indazol-6-yl]pyridin-3-yl}-formamido)butanoate], for which the half-maximal inhibitory concentration (IC50) was 41 nM.

As to `CNC(=O)c1n[nH]c2cc(-c3cnc(OC)c(C(=O)NCCCC(=O)N(CC4CC4)C4CC4)c3)ccc12` [Example 142, 6-[5-({3-[cyclopropyl(cyclo-propylmethyl)carbamoyl]-propyl}carbamoyl)-6-meth-oxypyridin-3-yl]-N-methyl-1H-indazole-3-carboxamide], the IC50 is 120 nM.

For `CNC(=O)c1n[nH]c2cc(-c3cnc(OC)c(C(=O)NCC(C)(C)C(=O)OC(C)(C)C)c3)cc(F)c12` [Example 144, tert-butyl 3-({5-[4-fluoro-3-(methylcarbamoyl)-1H-indazol-6-yl]-2-methoxy-pyridin-3-yl}formamido)-2,2-dimethylpropanoate], the IC50 was 100 nM.

Regarding `CNC(=O)c1n[nH]c2cc(-c3cnc(OC)c(C(=O)NC(C)c4cccc(OC(F)(F)F)c4)c3)cc(F)c12` (stereo not shown) [Example 147, 4-fluoro-6-[6-methoxy-5-({1-[3-(trifluoromethoxy)-phenyl]ethyl}carbamoyl)-pyridin-3-yl]-N-methyl-1H-indazole-3-carboxamide], the IC50 was determined as 110 nM.

As to `CNC(=O)c1n[nH]c2cc(-c3cc(C(=O)NCc4cc(OC(F)(F)F)ccc4F)c(OC)nc3C)ccc12` [Example 161, 6-[5-({[2-fluoro-5-(tri-fluoromethoxy)phenyl]-methyl}carbamoyl)-6-methoxy-2-methylpyridin-3-yl]-N-methyl-1H-indazole-3-carboxamide], the IC50 stood at 74 nM.

Turning to `COc1ncc(-c2ccc3c(C(=O)N[C@H](C)C4CC4)n[nH]c3c2)cc1C(=O)NCc1ccccc1OC(F)(F)F` [Example 171, N-[(1R)-1-cyclopropylethyl]-6-[6-methoxy-5-({[2-(trifluoro-methoxy)phenyl]methyl}-carbamoyl)pyridin-3-yl]-1H-indazole-3-carboxamide], the IC50 is 120 nM.

Consider `COc1ncc(-c2ccc3c(C(=O)NC4CC4)n[nH]c3c2)cc1C(=O)NCc1ccccc1OC(F)(F)F` [Example 174, N-cyclopropyl-6-[6-methoxy-5-({[2-(trifluoromethoxy)phenyl]-methyl}carbamoyl)pyridin-3-yl]-1H-indazole-3-carboxamide], for which the IC50 was found to be 14 nM.

With `COc1ncc(-c2ccc3c(C(=O)NCC(F)(F)F)n[nH]c3c2)cc1C(=O)NCc1ccccc1OC(F)(F)F` [Example 178], the IC50 was 120 nM.

On to `COc1ncc(-c2ccc3c(C(=O)NC(C)C)n[nH]c3c2)cc1C(=O)NCc1ccccc1OC(F)(F)F` [Example 179, 6-[6-methoxy-5-({[2-(trifluoro-methoxy)phenyl]methyl}carbam-oyl)pyridin-3-yl]-N-(propan-2-yl)-1H-indazole-3-carboxamide], for which the IC50 came to 73 nM.

Consider `[2H]C([2H])([2H])Oc1ncc(-c2ccc3c(C(=O)NC4CC4)n[nH]c3c2)cc1C(=O)NC(C)c1cccc(OC(F)(F)F)c1` (stereo not shown) [Example 197, N-cyclopropyl-6-[6-(deutero)-methoxy-5-({1-[3-(trifluorometh-oxy)phenyl]ethyl}carbamoyl)-pyridin-3-yl]-1H-indazole-3-carboxamide], for which the concentration for half-maximal inhibition (IC50) is 52 nM.

For `[2H]C([2H])([2H])Oc1ncc(-c2ccc3c(C(=O)NC4CC4)n[nH]c3c2)cc1C(=O)N[C@@H](C)c1cccc(C(F)(F)F)c1` [Example 211, N-cyclopropyl-6-[6-(deutero)-methoxy-5-{[(1S)-1-[3-(trifluoro-methyl)phenyl]ethyl]carbamoyl}-pyridin-3-yl]-1H-indazole-3-carboxamide], the IC50 came out at 27 nM.

For the molecule `[2H]C([2H])([2H])NC(=O)c1n[nH]c2cc(-c3cnc(OC([2H])([2H])[2H])c(C(=O)N[C@@H](C)c4cc(C(F)(F)F)ccc4F)c3)ccc12` [Example 213, 6-(5-{[(1S)-1-[2-fluoro-5-(trifluoro-methyl)phenyl]ethyl]carbamoyl}-6-(deutero)methoxypyridin-3-yl)-N-(deutero)methyl-1H-indazole-3-carboxamide], the IC50 worked out at 21 nM.

`[2H]C([2H])([2H])NC(=O)c1n[nH]c2cc(-c3cnc(OC([2H])([2H])[2H])c(C(=O)N[C@H](C)c4cc(OC(F)(F)F)ccc4F)c3)ccc12` [Example 218, 6-(5-{[(1R)-1-[2-fluoro-5-(trifluoro-methoxy)phenyl]ethyl]carbamoyl}-6-(deutero)methoxypyridin-3-yl)-N-(deutero)methyl-1H-indazole-3-carboxamide]: the IC50 is 32 nM.

`[2H]C([2H])([2H])NC(=O)c1n[nH]c2cc(-c3cnc(OC([2H])([2H])[2H])c(C(=O)N[C@H](C)c4ccccc4C(F)(F)F)c3)ccc12` [Example 219, 6-[6-(deutero)methoxy-5-{[(1R)-1-[2-(trifluoromethyl)phenyl]ethyl]-carbamoyl}pyridin-3-yl]-N-(deutero)-methyl-1H-indazole-3-carboxamide]: the IC50 came to 18 nM.

Staying with this test, now noted: necroptosis induced with TNFα, SMAC mimetic and Z-VAD, 6 h, read-out: pMLKL (IC50).
On to `CNC(=O)c1n[nH]c2cc(-c3cnc(OC)c(C(=O)NCc4cc(F)cc(F)c4OC)c3)ccc12` [Example 89, 6-(5-{[(3,5-difluoro-2-methoxy-phenyl)methyl]carbamoyl}-6-methoxy-pyridin-3-yl)-N-methyl-1H-indazole-3-carbox-amide], for which the IC50 was determined as 85 nM.

On to `CNC(=O)c1n[nH]c2cc(-c3cnc(OC)c(C(=O)N[C@H](C)c4cc(OC(F)(F)F)ccc4F)c3)ccc12` [Example 216, 6-(5-{[(1R)-1-[2-fluoro-5-(trifluoro-methoxy)phenyl](2,2,2-deutero)-ethyl]carbamoyl}-6-(deutero)meth-oxypyridin-3-yl)-N-(deutero)methyl-1H-indazole-3-carboxamide], for which the IC50 was found to be 30 nM.
